Results from US9550739B2, “Molecules having certain pesticidal utilities, and intermediates, compositions, and processes related thereto” (priority 2014, dated 2017).

Columns and labels:
Assay type in all cases: in vivo
[1] = test system: Cabbage Looper (Trichoplusia ni, TRIPNI) ("CL"); assay: Bioassays on Cabbage Looper (CL), 128-well diet tray assay; conditions: Trichoplusia ni, 168 h, read-out: CL % Control (or Mortality) rating
Experimental: (§1) Certain molecules disclosed in this document were tested against BAW and CEW using procedures described in the following examples. In the reporting of the results, the “BAW & CL Rating Table” was used (See Table Section).
Bioassays on CL were conducted using a 128-well diet tray assay. one to five second instar CL larvae were placed in each well (3 mL) of the diet tray that had been previously filled with 1 mL of artificial diet to which 50 μg/cm^2 of the test compound (dissolved in 50 μL of 90:10 acetone-water mixture) had been applied (to each of eight wells) and then allowed to dry. Trays were covered with a clear self-adhesive cover and held at 25° C., 14:10 light-dark for five to seven days. Percent mortality was recorded for the larvae in each well; activity in the eight wells was then averaged. The results are indicated in the table entitled “Table ABC: Biological Results” (See Table Section).

[2] = test system: Beet Armyworm (Spodoptera exigua, LAPHEG) ("BAW"); assay: Bioassays on Beet Armyworm (BAW), 128-well diet tray assay; conditions: Spodoptera exigua, 168 h; second instar BAW larvae, 50 μg/cm^2 on artificial diet, five to seven days, 25° C.; read-out: BAW % Control (or Mortality) rating
Experimental: as §1
Bioassays on BAW were conducted using a 128-well diet tray assay. one to five second instar BAW larvae were placed in each well (3 mL) of the diet tray that had been previously filled with 1 mL of artificial diet to which 50 μg/cm^2 of the test compound (dissolved in 50 μL of 90:10 acetone-water mixture) had been applied (to each of eight wells) and then allowed to dry. Trays were covered with a clear self-adhesive cover and held at 25° C., 14:10 light-dark for five to seven days. Percent mortality was recorded for the larvae in each well; activity in the eight wells was then averaged. The results are indicated in the table entitled “Table ABC: Biological Results” (See Table Section).

[3] = test system: Yellow Fever Mosquito (Aedes aegypti, AEDSAE) ("YFM"); conditions: about 1 day-old larvae, 4000 ppm master solution diluted, 3 days, room temperature
Experimental: Certain molecules disclosed in this document were tested against YFM using procedures described in the following paragraph. In the reporting of the results, the “YFM Rating Table” was used (See Table Section).
Master plates containing 400 μg of a molecule dissolved in 100 μL of dimethyl sulfoxide (DMSO) (equivalent to a 4000 ppm solution) are used. A master plate of assembled molecules contains 15 μL per well. To this plate, 135 μL of a 90:10 water:acetone mixture is added to each well. A robot (Biomek® NXP Laboratory Automation Workstation) is programmed to dispense 15 μL aspirations from the master plate into an empty 96-well shallow plate (“daughter” plate). There are 6 reps (“daughter” plates) created per master. The created daughter plates are then immediately infested with YFM larvae.
The day before plates are to be treated, mosquito eggs are placed in Millipore water containing liver powder to begin hatching (4 g. into 400 mL). After the daughter plates are created using the robot, they are infested with 220 μL of the liver powder/larval mosquito mixture (about 1 day-old larvae). After plates are infested with mosquito larvae, a non-evaporative lid is used to cover the plate to reduce drying. Plates are held at room temperature for 3 days prior to grading. After 3 days, each well is observed and scored based on mortality.

## Cc1ccccc1-c1cc(C(=O)Nc2ccc(-c3ncn(-c4ccc(C(F)(F)F)cc4)n3)cc2)ccc1F [F58, 6-Fluoro-2′-methyl-N-(4-(1-(4-(trifluoromethyl)phenyl)-1H-1,2,4-triazol-3-yl)phenyl)-[1,1′-biphenyl]-3-carboxamide]
[1]
  mortality at 50 µg/cm2: 50 to 100%
[2]
  mortality at 50 µg/cm2: 50 to 100%
[3]
  YFM % Control (or Mortality) rating: D (No activity noticed in this bioassay)

## COc1ccccc1-c1cccc(C(=S)Nc2ccc(-c3ncn(-c4ccc(OC(F)(F)C(F)(F)F)cc4)n3)cc2)c1 [F23, 2′-methoxy-N-(4-(1-(4-(perfluoroethoxy)phenyl)-1H-1,2,4-triazol-3-yl)phenyl)-[1,1′-biphenyl]-3-carbothioamide]
[1]
  mortality at 50 µg/cm2: 50 to 100%
[2]
  mortality at 50 µg/cm2: 50 to 100%
[3]
  YFM % Control (or Mortality) rating: A (80-100)

## Cc1ccccc1-c1cc(F)cc(C(=O)N(C)c2ccc(-c3ncn(-c4ccc(OC(F)(F)C(F)(F)F)cc4)n3)cc2)c1 [F29, 5-fluoro-N,2′-dimethyl-N-(4-(1-(4-(perfluoroethoxy)phenyl)-1H-1,2,4-triazol-3-yl)phenyl)-[1,1′-biphenyl]-3-carboxamide]
[1]
  mortality at 50 µg/cm2: 0%
[2]
  mortality at 50 µg/cm2: 50 to 100%
[3]
  YFM % Control (or Mortality) rating: D (No activity noticed in this bioassay)

## CC(C)Oc1ccc(-n2cnc(-c3ccc(NC(=O)c4ccc(F)c(-c5ccccc5)c4)cc3)n2)cc1 [F16, 6-Fluoro-N-(4-(1-(4-isopropoxyphenyl)-1H-1,2,4-triazol-3-yl)phenyl)-[1,1′-biphenyl]-3-carboxamide]
[1]
  mortality at 50 µg/cm2: 50 to 100%
[2]
  mortality at 50 µg/cm2: 0%
[3]
  YFM % Control (or Mortality) rating: B (More than 0-Less than 80)

## O=C(Nc1ccc(-c2ncn(-c3ccc(OC(F)(F)F)cc3)n2)cc1)c1cccc(-c2ccccc2OCc2ccccc2)c1 [F3, 2′-(Benzyloxy)-N-(4-(1-(4-(trifluoromethoxy)phenyl)-1H-1,2,4-triazol-3-yl)phenyl)-[1,1′-biphenyl]-3-carboxamide]
[1]
  mortality at 50 µg/cm2: 0%
[2]
  mortality at 50 µg/cm2: 0%
[3]
  YFM % Control (or Mortality) rating: D (No activity noticed in this bioassay)

## O=C(NCc1ccc(-c2ncn(-c3ccc(OC(F)(F)F)cc3)n2)cc1)c1cccc(-c2ccccc2)c1 [F57, N-(4-(1-(4-(trifluoromethoxy)phenyl)-1H-1,2,4-triazol-3-yl)benzyl)-[1,1′-biphenyl]-3-carboxamide]
[1]
  mortality at 50 µg/cm2: 50 to 100%
[2]
  mortality at 50 µg/cm2: 0%
[3]
  YFM % Control (or Mortality) rating: D (No activity noticed in this bioassay)

## O=C(Nc1ccc(-c2ncn(-c3ccc(OC(F)(F)F)cc3)n2)cc1)c1cccc(-c2ccccc2Cl)c1 [F30, 2′-Chloro-N-(4-(1-(4-(trifluoromethoxy)phenyl)-1H-1,2,4-triazol-3-yl)phenyl)-[1,1′-biphenyl]-3-carboxamide]
[1]
  mortality at 50 µg/cm2: 50 to 100%
[2]
  mortality at 50 µg/cm2: 50 to 100%
[3]
  YFM % Control (or Mortality) rating: D (No activity noticed in this bioassay)

## Cc1ccccc1-c1cccc(C(=O)Nc2ccc(-c3ncn(-c4ccc(OC(F)(F)F)cc4)n3)cc2)n1 [F33, 6-(o-Tolyl)-N-(4-(1-(4-(trifluoromethoxy)phenyl)-1H-1,2,4-triazol-3-yl)phenyl)picolinamide]
[1]
  mortality at 50 µg/cm2: 50 to 100%
[2]
  mortality at 50 µg/cm2: 0%
[3]
  YFM % Control (or Mortality) rating: D (No activity noticed in this bioassay)

## O=C(Nc1ccc(-c2ncn(-c3ccc(OC(F)(F)C(F)(F)F)cc3)n2)cc1)c1cccc(-c2ccccc2)n1 [F47, N-(4-(1-(4-(Perfluoroethoxy)phenyl)-1H-1,2,4-triazol-3-yl)phenyl)-6-phenylpicolinamide]
[1]
  mortality at 50 µg/cm2: 0%
[2]
  mortality at 50 µg/cm2: 0%
[3]
  YFM % Control (or Mortality) rating: D (No activity noticed in this bioassay)

## Cc1ccccc1-c1cc(F)cc(C(=O)Nc2ccc(-c3ncn(-c4ccc(OC(F)(F)C(F)(F)F)cc4)n3)cc2)c1 [F42, 5-Fluoro-2′-methyl-N-(4-(1-(4-(perfluoroethoxy)phenyl)-1H-1,2,4-triazol-3-yl)phenyl)-[1,1′-biphenyl]-3-carboxamide]
[1]
  mortality at 50 µg/cm2: 50 to 100%
[2]
  mortality at 50 µg/cm2: 0%
[3]
  YFM % Control (or Mortality) rating: D (No activity noticed in this bioassay)

## COc1ccccc1-c1cccc(C(=O)NCCc2ccc(-c3ncn(-c4ccc(OC(F)(F)F)cc4)n3)cc2)c1 [F50, 2′-methoxy-N-(4-(1-(4-(trifluoromethoxy)phenyl)-1H-1,2,4-triazol-3-yl)phenethyl)-[1,1′-biphenyl]-3-carboxamide]
[1]
  mortality at 50 µg/cm2: 50 to 100%
[2]
  mortality at 50 µg/cm2: 50 to 100%
[3]
  YFM % Control (or Mortality) rating: D (No activity noticed in this bioassay)

## COc1ccc(C(=O)Nc2ccc(-c3ncn(-c4ccc(C(F)(F)F)cc4)n3)cc2)cc1-c1ccccc1 [F61, 6-Methoxy-N-(4-(1-(4-(trifluoromethyl)phenyl)-1H-1,2,4-triazol-3-yl)phenyl)-[1,1′-biphenyl]-3-carboxamide]
[1]
  mortality at 50 µg/cm2: 50 to 100%
[2]
  mortality at 50 µg/cm2: 50 to 100%
[3]
  YFM % Control (or Mortality) rating: A (80-100)

## CCN(C(=O)c1ccc(F)c(-c2ccccc2OC)c1)c1ccc(-c2ncn(-c3ccc(OC(F)(F)F)cc3)n2)cc1 [F64, N-Ethyl-6-fluoro-2′-methoxy-N-(4-(1-(4-(trifluoromethoxy)phenyl)-1H-1,2,4-triazol-3-yl)phenyl)-[1,1′-biphenyl]-3-carboxamide]
[1]
  mortality at 50 µg/cm2: 50 to 100%
[2]
  mortality at 50 µg/cm2: 50 to 100%
[3]
  YFM % Control (or Mortality) rating: D (No activity noticed in this bioassay)

## Cc1ccc(-c2cccc(C(=O)Nc3ccc(-c4ncn(-c5ccc(OC(F)(F)F)cc5)n4)cc3)n2)c(C)c1 [F2, 6-(2,4-Dimethylphenyl)-N-(4-(1-(4-(trifluoromethoxy)phenyl)-1H-1,2,4-triazol-3-yl)phenyl)picolinamide]
[1]
  mortality at 50 µg/cm2: 0%
[2]
  mortality at 50 µg/cm2: 0 to 50%
[3]
  YFM % Control (or Mortality) rating: D (No activity noticed in this bioassay)

## Cc1ccccc1-c1cc(C(=O)Nc2ccc(-c3ncn(-c4ccc(OC(F)(F)F)cc4)n3)cc2)ccc1Cl [F32, 6-Chloro-2′-methyl-N-(4-(1-(4-(trifluoromethoxy)phenyl)-1H-1,2,4-triazol-3-yl)phenyl)-[1,1′-biphenyl]-3-carboxamide]
[1]
  mortality at 50 µg/cm2: 50 to 100%
[2]
  mortality at 50 µg/cm2: 0%
[3]
  YFM % Control (or Mortality) rating: D (No activity noticed in this bioassay)

## Cc1ccccc1-c1cc(F)cc(C(=O)Nc2ccc(-c3ncn(-c4ccc(OC(F)(F)F)cc4)n3)cc2)c1 [F39, 5-Fluoro-2′-methyl-N-(4-(1-(4-(trifluoromethoxy)phenyl)-1H-1,2,4-triazol-3-yl)phenyl)-[1,1′-biphenyl]-3-carboxamide]
[1]
  mortality at 50 µg/cm2: 50 to 100%
[2]
  mortality at 50 µg/cm2: 50 to 100%
[3]
  YFM % Control (or Mortality) rating: D (No activity noticed in this bioassay)

## O=C(Nc1ccc(-c2ncn(-c3ccc(C(F)(F)F)cc3)n2)cc1)c1ccccn1 [F68, N-(4-(1-(4-(trifluoromethyl)phenyl)-1H-1,2,4-triazol-3-yl)phenyl)picolinamide]
[1]
  mortality at 50 µg/cm2: 0%
[2]
  mortality at 50 µg/cm2: 0 to 50%
[3]
  YFM % Control (or Mortality) rating: D (No activity noticed in this bioassay)

## Cc1ccccc1-c1cccc(C(=O)Nc2ccc(-c3ncn(-c4ccc(OC(F)(F)C(F)(F)F)cc4)n3)cc2)c1 [F35, 2′-Methyl-N-(4-(1-(4-(perfluoroethoxy)phenyl)-1H-1,2,4-triazol-3-yl)phenyl)-[1,1′-biphenyl]-3-carboxamide]
[1]
  mortality at 50 µg/cm2: 50 to 100%
[2]
  mortality at 50 µg/cm2: 50 to 100%
[3]
  YFM % Control (or Mortality) rating: D (No activity noticed in this bioassay)

## COc1ccccc1-c1cc(C(=O)Nc2ccc(-c3ncn(-c4ccc(OC(F)(F)F)cc4)n3)cc2)ccc1F [F44, 6-Fluoro-2′-methoxy-N-(4-(1-(4-(trifluoromethoxy)phenyl)-1H-1,2,4-triazol-3-yl)phenyl)-[1,1′-biphenyl]-3-carboxamide]
[1]
  mortality at 50 µg/cm2: 50 to 100%
[2]
  mortality at 50 µg/cm2: 50 to 100%
[3]
  YFM % Control (or Mortality) rating: B (More than 0-Less than 80)
